Some results are limits rather than exact numbers.

Drawing on ChEMBL document CHEMBL4418304, “Combinations for the treatment of kidney stones” (2017), this text covers IC50 and Ki for 16 molecules.

The first assay has as its target T1, Hydroxyproline dehydrogenase (Homo sapiens, UniProt Q9UF12).
T1 sequence (Q9UF12 whole entry): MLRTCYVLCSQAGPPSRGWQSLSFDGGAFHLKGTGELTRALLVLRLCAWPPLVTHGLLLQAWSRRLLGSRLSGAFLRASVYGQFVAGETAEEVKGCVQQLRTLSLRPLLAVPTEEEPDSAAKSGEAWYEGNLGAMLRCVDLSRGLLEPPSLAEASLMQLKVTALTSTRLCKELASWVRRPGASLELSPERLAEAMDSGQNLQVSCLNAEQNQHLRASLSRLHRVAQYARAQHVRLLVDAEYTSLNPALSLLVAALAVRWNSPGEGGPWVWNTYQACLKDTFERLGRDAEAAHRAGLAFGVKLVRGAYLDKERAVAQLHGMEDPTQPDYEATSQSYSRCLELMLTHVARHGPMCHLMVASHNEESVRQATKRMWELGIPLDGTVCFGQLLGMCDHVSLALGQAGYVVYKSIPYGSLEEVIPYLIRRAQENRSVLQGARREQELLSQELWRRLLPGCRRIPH
The assay can be described thus: Inhibition of recombinant human HYPDH expressed in Escherichia coli using hydroxyproline as substrate preincubated for 5 mins followed by substrate addition in presence of FAD as cofactor.
Conditions: not given
Regarding `O=C(O)c1ccco1`, the IC50 (in general, the concentration that gives 50% inhibition) is on record as “Nd(Insoluble)”.

Staying with this assay, now noted: read-out: IC50.
For the molecule `O=C(O)C1=NN=C(O)C1`, the half-maximal inhibitory concentration (IC50) was found to be 2900 µM.
Same read-out and setting: next, `O=C1CC[C@H](C(=O)O)C1`: 380 µM; `O=C(O)[C@H]1CC[C@@H](O)C1`: more than 10000 µM.
On to `O=C1CS[C@H](C(=O)O)C1`, for which the IC50 came to 320 µM.
Turning to `O=C(O)[C@@H]1C[C@@H](O)CS1`, the IC50 is 330 µM.
Same read-out and setting: next, `O=C(O)C1CCCO1` (stereo unspecified): 1500 µM; `O=C1CC[C@@H](C(=O)O)C1`: 370 µM.
For `O=C(O)c1cc(O)cs1`, the half-maximal inhibitory concentration (IC50) is less than 1000 µM.
Take `N[C@H]1CC[C@H](C(=O)O)C1`: the IC50 is 630 µM.
On the same count and under the same terms, with `O=C(O)[C@@H]1C[C@H](O)CS1` the figure was 370 µM.
Still for that read-out and setting: next, `O=C(O)[C@@H]1CC(O)(O)CS1`: 290 µM; `O=C(O)C[C@H]1CC[C@H](O)C1`: 480 µM.
For `O=C(O)[C@@H]1CC[C@@H](O)C1`, the IC50 amounted to 2100 µM.
Take `O=C(O)[C@H]1CC[C@H](O)C1`: the IC50 turned out to be 600 µM.

For another assay, the target named is T2, 2-Hydroxyacid oxidase 1 (Homo sapiens, UniProt Q9UJM8).
T2 sequence (Q9UJM8 whole entry): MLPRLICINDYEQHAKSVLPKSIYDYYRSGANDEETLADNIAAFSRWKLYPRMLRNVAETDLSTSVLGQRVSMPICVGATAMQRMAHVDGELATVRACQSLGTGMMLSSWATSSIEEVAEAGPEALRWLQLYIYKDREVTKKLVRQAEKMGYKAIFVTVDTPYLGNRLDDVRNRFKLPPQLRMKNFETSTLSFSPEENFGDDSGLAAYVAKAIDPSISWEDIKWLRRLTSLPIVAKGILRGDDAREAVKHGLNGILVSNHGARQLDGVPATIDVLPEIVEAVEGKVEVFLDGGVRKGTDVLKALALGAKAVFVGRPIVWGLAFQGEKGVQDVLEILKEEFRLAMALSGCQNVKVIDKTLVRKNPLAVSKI
Briefly: Inhibition of recombinant human liver HAOX1 using glycolate as substrate preincubated for 5 mins followed by substrate addition in presence of […].
Conditions: not given
As for `CCCCCCCCCCCCSc1[nH]nnc1C(=O)O`, the Ki (as a rule, the equilibrium dissociation constant of an inhibitor or competing ligand from its target) is 0.015 µM.
